The first assay has as its target T1, human ZAC (zinc activated ion channel) (Homo sapiens, UniProt Q401N2).
T1 construct: expressed in transfected cells; host or cells: HEK (human embryonic kidney) cells, transient calcium phosphate transfection, vector pcDNA1.1/amp, GFP co-transfected on a separate plasmid (pCDM8)
T1 sequence (Q401N2 26-412): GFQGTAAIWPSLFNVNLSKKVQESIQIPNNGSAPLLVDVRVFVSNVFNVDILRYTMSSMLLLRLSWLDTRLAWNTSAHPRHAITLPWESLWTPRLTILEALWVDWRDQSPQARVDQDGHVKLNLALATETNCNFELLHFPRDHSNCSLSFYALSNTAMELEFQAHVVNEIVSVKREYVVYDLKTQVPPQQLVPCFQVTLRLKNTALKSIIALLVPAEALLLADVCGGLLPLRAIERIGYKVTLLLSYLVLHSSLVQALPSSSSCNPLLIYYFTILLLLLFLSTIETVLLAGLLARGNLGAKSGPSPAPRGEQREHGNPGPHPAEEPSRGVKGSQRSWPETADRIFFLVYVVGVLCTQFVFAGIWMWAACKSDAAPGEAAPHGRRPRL
Put plainly: Whole cell patch-clamp recording of currents from HEK cells transfected with human ZAC. Type of assay: cell-based.
Conditions: not given
The protocol:
To generate HEK expressing hZAC, HEK cells were grown in Dulbecco's modified Eagle's medium, supplemented with 10% calf serum, 100 IU/ml penicillin, and 100 μg/ml streptomycin. Following confluence, the cells were seeded into 35 mm diameter dishes and transfected with cDNAs encoding the human ZAC subunit (in pcDNA1.1/amp) and green fluorescent protein (GFP) (in pCDM8). Cells were transfected using calcium phosphate precipitation as known in the art. Cells were used 24-44 h after transfection.
The whole cell patch-clamp technique was used to record currents from HEK cells. The bath was perfused continuously (5 ml/min) with an extracellular solution containing (in mM); NaCl, 140; KCl, 4.7; MgCl2, 1.2; CaCl2, 2.5; glucose, 11; and HEPES, 10 (pH 7.4 with NaOH). The electrode solution contained (in mM); KCl, 140; MgCl2, 2.0; EGTA, 11; and HEPES, 10 (pH 7.4 with KOH). The intracellular solution used to characterize the cation permeability of ZAC channels contained (in mM); KCl, 70; N-methyl-D-glucamine, 70; MgCl2, 2.0; EGTA, 11; and HEPES, 10 (pH 7.4 with HCl). The intracellular solution used to determine the contribution of Cl^− to the ZAC currents contained (in mM); KCl, 70; K^+ gluconate, 70; MgCl2, 2.0; EGTA, 11; and HEPES, 10 (pH 7.4 with KOH). Junction potentials were nulled prior to each experiment. Inappropriate inappropriate compensation was ignored in graphs of current-voltage relationships, but equilibrium potential values were corrected. Cells were clamped at −60 mV unless otherwise stated. Drugs were applied either by pressure ejection from modified micropipettes or by bath perfusion as known in the art. Experiments were performed at 22-24° C.
Currents were amplied (Axopatch 200A, Axon Instruments), low pass-filtered at 1 kHz, and digitized (Digidata 1320, Axon Instruments, Foster City, Calif.) for acquisition onto the hard drive of a personal computer. Currents were averaged, superimposed, and measured using pCLAMP software (Axon Instruments). Zn^+2 concentration-response data were obtained by prolonged (2 s) pressue ejection of randomized agonist concentrations from low resistance pipettes as known in the art.
To compensate, 1 mM Zn^+2 was applied before each concentration of Zn^+2. The amplitudes of the Zn^+2 activated currents were subsequently normalized to the current elicited by the prior application of 1 mM Zn^+2.
Graphs of concentration-response relationships were fitted using a logistic function as known in the art. Current-voltage relationships were analyzed by averaging at least two currents recorded at each holding potential. Individual current-voltage relationships were plotted, and a linear fit to points either side of current reversal yielded the equilibrium potential. All data are expressed as the arithmetic mean±S.E., and statistical comparisons were made using the Student's t test.
On the technique in general: Patch clamp records ionic current or voltage across a cell membrane.
On to `CNC[C@H](O)c1ccc(O)c(O)c1` [epinephrine], for which the “Activation of ZAC” value is listed as “did not activate”.

With `CN1CC[C@]23c4c5ccc(O)c4O[C@H]2[C@@H](O)C=C[C@H]3[C@H]1C5` [morphine], the “Activation of ZAC” value was “did not activate”.

On to `CC(C)c1cccc(C(C)C)c1O` [propofol], for which the “Activation of ZAC” value was “did not activate”.

For the molecule α-bungarotoxin, the “Effect of antagonists on ZAC (inhibition)” value (shortened to “Effect … (inhibition)”) was “no effect”.

The assay is the same for the next values; noted with them: HEK cells expressing hZAC, whole cell patch-clamp.
In the case of `CNC1(C)C2CCC(C2)C1(C)C` (stereo not shown) [mecamylamine], the “Effect … (inhibition)” value is reported as “no effect”.

As to `Cc1nccn1CC1CCc2c(c3ccccc3n2C)C1=O` (stereo not shown) [ondansetron], the “Effect … (inhibition)” value is given as “no effect”.

In the case of `C[N+]1(C)CCc2cc3c(cc2[C@H]1[C@@H]1OC(=O)c2c1ccc1c2OCO1)OCO3.[I-]` [bicuculline methiodide], the “Effect … (inhibition)” value is “no effect”.

Regarding `COc1cc2c3cc1Oc1cc(ccc1O)C[C@@H]1c4c(cc(OC)c(O)c4Oc4ccc(cc4)C[C@@H]3N(C)CC2)CC[N+]1(C)C` [Tubocurarine], the “Effect … (inhibition)” value is “inhibited”.

For the molecule `[Zn+2]` [Zn^+2, zinc], the “Concentration required for activation of ZAC” value was above 30 µM.

Staying with this assay, now noted: HEK cells expressing hZAC, whole cell patch-clamp, clamped at −60 mV, 22-24° C.
Regarding neuropeptide Y, the “Activation of ZAC” value was “did not activate”.

In the case of galonin, the “Activation of ZAC” value is on record as “did not activate”.

`CC[C@H](C)[C@@H]1NC(=O)[C@H](Cc2ccc(O)cc2)NC(=O)[C@@H](N)CSSC[C@@H](C(=O)N2CCC[C@H]2C(=O)N[C@@H](CC(C)C)C(=O)NCC(N)=O)NC(=O)[C@H](CC(N)=O)NC(=O)[C@H](CCC(N)=O)NC1=O` [oxytocin]: the “Activation of ZAC” value is recorded as “did not activate”.

For the molecule `CC(=O)[C@H]1CC[C@H]2[C@@H]3CC[C@H]4C[C@H](O)CC[C@]4(C)[C@H]3CC[C@]12C` [allopregnanolone], the “Activation of ZAC” value was “did not activate”.

In the case of `NCCCC(=O)O` [GABA, γ-amino butyric acid], the “Activation of ZAC” value was “did not activate”.

For `N[C@@H](CCC(=O)O)C(=O)O` [glutamate], the “Activation of ZAC” value is “did not activate”.

For the molecule `NCCc1ccc(O)c(O)c1` [dopamine], the “Activation of ZAC” value is “did not activate”.

With `NCCc1c[nH]cn1` [histamine], the “Activation of ZAC” value is recorded as “did not activate”.

As to `Nc1ncnc2c1ncn2[C@@H]1O[C@H](COP(=O)(O)OP(=O)(O)OP(=O)(O)O)[C@@H](O)[C@H]1O` [ATP], the “Activation of ZAC” value is recorded as “did not activate”.

Regarding `CNC1(c2ccccc2Cl)CCCCC1=O` (stereo not shown) [ketamine], the “Activation of ZAC” value is “did not activate”.

On to `NCC(=O)O` [glycine], for which the “Activation of ZAC” value is listed as “did not activate”.

In the case of somatostain, the “Activation of ZAC” value is on record as “did not activate”.

On to `NCCc1c[nH]c2ccc(O)cc12` [5-HT, 5-hydroxytryptamine], for which the “Activation of ZAC” value is recorded as “did not activate”.

With `N[C@@H](CCC(=O)N[C@@H](CS)C(=O)NCC(=O)O)C(=O)O` [glutathione], the “Activation of ZAC” value is given as “did not activate”.

`[Zn+2]` [Zn^+2, zinc]: the “Activation of ZAC” value was “activated”.

Staying with this assay, now noted: HEK cells expressing hZAC, whole cell patch-clamp; mean±S.E.
Regarding `[Zn+2]` [Zn^+2, zinc], the “Equilibrium potential of Zn+2 activated currents” value is on record as −5±1 mV.

The values are drawn from patent publication US20040248245A1, “Zinc activated ion channel” (priority 2003, published 2004).
